From paper PMC11579209, “Population pharmacokinetics and exposure–response relationships of maribavir in transplant recipients with cytomegalovirus infection” (Journal of Pharmacokinetics and Pharmacodynamics, 2024)

Assay: Population pharmacokinetic (PopPK) model (NONMEM), pooled maribavir plasma concentration–time data from phase 1, 2 and 3 studies
Format: in vivo, human
Procedure: A PopPK model was developed using non-linear mixed effects modeling (NONMEM) (v7.4.3) with pooled maribavir plasma concentration–time data from 667 participants in nine phase 1 studies (n = 182, single or repeated doses of 100, 200 or 400 mg), two phase 2 studies (NCT01611974, EudraCT 2010-024247-32, 400, 800, and 1200 mg BID), and one phase 3 study (SOLSTICE, NCT02931539, 400 mg BID; phase 2 and 3 combined: n = 485). The final PopPK analysis dataset comprised data from individuals who had received at least one dose of maribavir and had at least one quantifiable post-dose concentration. This model was used to describe the time course of maribavir plasma concentrations in healthy volunteers, participants with hepatic or renal impairment, stable renal transplant patients, and hematopoietic cell transplant (HCT) or solid organ transplant (SOT) recipients with CMV infection, including those with refractory CMV infection.
One- (ADVAN2 TRANS2), two- (ADVAN4 TRANS4), and three (ADVAN12 TRANS4)-compartment models with first-order absorption, an absorption lag time, and linear clearance were initially investigated. The NONMEM control stream for the final model can be found in the Supplementary Methods S1 of the Supplementary Material 1. […] Consequently, the effects of co-administration of strong CYP3A4 inhibitors and strong CYP3A4 inducers were considered for inclusion in the base model. The effect of body weight (scaled to 70 kg) on both clearance and volume terms was also considered for inclusion in the base model.
Structural and variance model parameters were estimated for the base model, and inter-individual variability (IIV) was included on all structural parameters. Runs with untransformed data were used to test the residual error models. Plots of weighted residuals were evaluated for homoscedasticity with respect to predictions and time since dose, and the structure of the base model was expanded as necessary to best reflect the characteristic shape of the observations over time. Dose and time dependency were explored for PK model parameters. Parameter estimation was performed using Monte Carlo Importance Sampling Expectation Maximization assisted by Mode a Posteriori, with MU referencing (where THETAs that define typical values of individual parameters, and are associated with random effects, are referenced in a PHI/MU format) to improve the efficiency of computations. The impact of post-dose observations below the lower limit of quantification (BLQ) was assessed in initial models by implementing the M3 method, which maximizes the likelihood for all the data treating BLQ observations as censored. The performance of the final PopPK model was evaluated using a confidence interval prediction-corrected visual predictive check (CI-pcVPC) method. In addition, the percentage of observations outside the overall 5th and 95th percentiles of the predicted data was calculated.
Strong CYP3A4 inhibitors and inducers, as well as weight, were included in the base model.
Continuous covariates were obtained from observations on the first day of dosing, or at screening if this value was not available. […] Categorical covariates were tested and incorporated in the model as a series of index variables taking on values of zero or one.
The full model with backwards deletion approach was used for covariate modeling, with all covariate parameter relationships of interest entered into the model simultaneously. Highly correlated covariates were tested one at a time to avoid confounding in the estimation of covariate effects. A backwards deletion was carried out at the p = 0.001 significance level. The order of removal was based on the relative standard error and 95% confidence interval (CI) of the parameter estimate.

[1] = reference: 70-kg individual without CMV, 800 mg

CC(C)Nc1nc2cc(Cl)c(Cl)cc2n1[C@H]1O[C@@H](CO)[C@H](O)[C@@H]1O [maribavir]
CL/F higher in the presence of strong CYP3A4 inducers (final PopPK model): 2.24 fold | CL/F lower in the presence of strong CYP3A4 inhibitors (final PopPK model): 30% | CL/F ~ CYP3A strong inducers, covariate estimate (final PopPK model): 2.24 | CL/F ~ CYP3A strong inhibitors, covariate estimate (final PopPK model): 0.700 | CL/F ~ transplant patients with CMV, covariate estimate (final PopPK model): 0.756 | CL/F lower for transplant recipients with CMV infection than for all other individuals (human, in vivo): 24% | Ka (first-order absorption), PopPK estimate [1]: 0.336 h^–1 | Lag-time, PopPK estimate [1]: 0.271 h | Q/F (inter-compartment clearance), PopPK estimate [1]: 0.908 L/h | Vc/F (apparent volume of central compartment), PopPK estimate [1]: 18.6 L | Vp/F (apparent volume of peripheral compartment), PopPK estimate [1]: 8.66 L | CL/F (apparent total clearance), PopPK estimate (reference: 70-kg individual without CMV, 800 mg maribavir, no CYP3A strong inhibitors or inducers): 3.77 L/h
